Measurements reported in PMC12502323, “Discovery of small molecules with anthelmintic potential in the Medicines for Malaria Venture’s COVID and Global Health Priority Boxes using an infrared-based assay for Caenorhabditis elegans motility” (BMC Research Notes, 2025).
Where “and” joins values, the source holds several entries; their conditions need not be identical. Equal entries are not always repeated. Where two headings read alike, the source gives them in different places.

What was measured:
[1] = system: Caenorhabditis elegans; test: Primary screen, infrared-based (WMicroTracker ONE) C. elegans L4 motility assay at 40 µM; format: cell-based, Caenorhabditis elegans (Bristol N2); conditions: primary screen at 40 µM; for C. elegans Mean motility vs. DMSO control (%): C. elegans L4; for C. elegans NOTES (HIT): hit if motility < 25%
Description: (§1) Methods to cultivate C. elegans (Bristol N2) and synchronize growth to the L4 stage were as described. WMicroTracker ONE (Phylumtech, Argentina) detects movement by measuring the scattering of infrared light beams that are projected into each well of a microtiter plate (two 880 nm beams/well in a 96w plate).
(§2) Synchronized C. elegans L4 were detached from agar and collected in M9 buffer. Worms were centrifuged for 1 min at 1,900 g and washed in S medium to decrease the concentration of E. coli OP50 that might interfere with infrared detection. Control and assay compounds (1 µL) in DMSO (Fisher Scientific, Cat# BP231-100) were spotted into each well of a clear, flat-bottomed 96-well polystyrene plate (Fisherbrand, Cat# FB012931). DMSO (1%) was used as the negative control. Approximately 70 L4 in 100 µL S medium were added per well. First pass screens employed 40 µM compound, and motility was measured every 20 min for 24 h in the WMicroTracker ONE reader in which the temperature was 25 ± 1 °C. Motility was normalized relative to the DMSO controls. Hits were defined as compounds that decreased motility to ≤ 25% of that in DMSO control worms.

[2] = system: Caenorhabditis elegans; test: Concentration response C. elegans L4 motility assay (WMicroTracker ONE), EC50; format: cell-based, Caenorhabditis elegans (Bristol N2); conditions: read-out: EC50 (motility)
Description: as §1, §2
For potent compounds, concentration response assays (nine concentrations: 0.005 µM to 40 or 100 µM) were conducted to measure the half-maximal effective concentration (EC50). Compounds were serially diluted in DMSO using 96-well, v-bottomed polypropylene dilution plates (ThermoFisher Scientific, Cat#: 249944) and 1 µL aliquots spotted into each well of the assay plates. Motility was measured as described above. Prism GraphPad, Version 8.0 (GraphPad Software, San Diego, CA) was used to calculate EC50 values using a non-linear sigmoidal four parameter logistic curve.

[3] = system: HEK293 cells; test: HEK293 cytotoxicity assay (resazurin); format: cell-based, Human
Description: (§3) Potent compounds were also evaluated for cytotoxicity against HEK293 cells. Cells were cultured at 37 °C and 5% in Dulbecco’s Modified Eagle Medium (DMEM; Gibco, Cat#: 11965-092) containing 10% heat-inactivated fetal bovine serum (FBS; Omega Scientific Inc., Cat#: FB02) and 1% penicillin-streptomycin (ThermoFisher Scientific, Cat#: 15140122), and then sub-cultured when 60–80% confluent. Cells were detached with 0.05% trypsin/EDTA (ThermoFisher Scientific, Cat#: 25300054) and centrifuged for 5 min at 1,900 g.
(§4) Screens were performed over 11 compound concentrations (0.00007–40 µM) that had been prepared in DMSO. Aliquots (1 µL) were spotted into each well of a clear-bottomed, 96-well, polystyrene assay plate (Fisher Scientific, Cat#: FB012931). Approximately 20,000 HEK293 cells in 99 µL of the above supplemented DMEM were then added to each well. After 46 h at 37 °C and 5% CO2, 20 µL 0.5 mM resazurin (ThermoFisher Scientific, Cat#: B21187.03) were added and the incubation continued for 2 h at 37 °C [27]. Fluorescence was measured in a 2104 EnVision Multilabel Plate Reader (PerkinElmer) at 560 and 590 nm excitation and emission wavelengths, respectively. Raw data were exported from the EnVision Workstation software (version 1.13.3009.1401; PerkinElmer) into Prism GraphPad, and the half-maximal cytotoxic concentration (CC50) values were calculated using a non-linear regression curve.

[4] = system: C. elegans L4; design: method as in PMID 38486232; conditions: GHPB screen, WMicroTracker ONE; cited from earlier work
[5] = system: Haemonchus contortus; design: method as in PMID 38486232; conditions: GHPB screen, WMicroTracker ONE; cited from earlier work
[6] = HEK293 cytotoxicity assay (resazurin); format: cell-based, Human; conditions: human, HEK293 cell viability after 48 h, read-out: CC50
Description: as §3, §4

[7] = system: C. elegans; conditions: read-out: EC50 previously recorded, cited from earlier work

| Molecule | C. elegans Mean motility vs. DMSO control (%) [1] | C. elegans NOTES (HIT) [1] | hit in screen against C. elegans L4 [4] | hit in screen against exsheathed L3 of Haemonchus contortus [5] | further results |
| --- | --- | --- | --- | --- | --- |
| O=C(Nc1ccc(Cl)c(C(F)(F)F)c1)Nc1ccc(Cl)c(C(F)(F)F)c1 [flucofuron] | 20.31% | HIT | hit only against the parasite | hit | EC50 ([2]; C. elegans L4, after 24 h): 20600 ± 10700 nM; CC50 ([3]; HEK293 cell viability after 48 h): 453 ± 331 nM |
| CCc1nn(C)c(C(=O)NCc2ccc(Oc3ccc(C)cc3)cc2)c1Cl [tolfenpyrad] | 0.26% | HIT | – | – | EC50 ([2]; Caenorhabditis elegans, C. elegans L4, after 12 h): 950 ± 256 nM; CC50 at 48 h [6]: 33800 ± 31400 nM; EC50 ([7]; after 24 h): 200 ± 40 nM |
| CC(F)c1ncnc(NCCc2ccc(OC(F)(F)F)cc2)c1Cl (stereo not shown) [flufenerim] | 0.26% | HIT | hit | hit | EC50 ([2]; C. elegans L4, after 12 h): 211 ± 34 nM |
| COc1ccc2c(c1)c(CC(=O)O)c(C)n2C(=O)c1ccc(Cl)cc1 [indomethacin, reference compound] | 18.64% | HIT | – | – | EC50 ([2]; Caenorhabditis elegans, C. elegans L4, after 24 h): 23200 ± 14100 nM; cytotoxicity to HEK293 cells (in words) ([3]; HEK293 cells): not cytotoxic; CC50 at 48 h ([6]; HEK293 cells): > 100000 nM |
| ivermectin [reference compound] | – | HIT | – | – | C. elegans Mean motility vs. DMSO control (%) ([1]; listed as MMV672931): 3.37% and 9.96%; EC50 ([2]; C. elegans L4, after 1 h): 130 ± 51 nM; EC50 ([7]; after 90 min): 190 ± 10 nM |
